The source of these data is PMC7052167, “TCR–pMHC bond conformation controls TCR ligand discrimination” (Cellular and Molecular Immunology, 2019).

SMILES strings stand for the structures.

Format in all cases: cell-based, mouse
Test [1] concerns TCR–CD3ζ complex of 5C.C7 T cells. The experiment in a line: Transmembrane TCR–CD3ζ FRET2 (GFP/Alexa Fluor 568), intramolecular TCR–CD3ζ distance. The conditions noted are these: 10 μM PP2. From the text:
To determine the conformation of a single TCR–pMHC bond, a TCR and a pMHC were site-specifically labeled with the FRET acceptor Cy5 and the FRET donor Cy3, respectively.[8] The peptide within the MHC molecule was labeled with Cy3, and the TCR was labeled with the anti-TCR single-chain variable fragment (scFv) J1-Cy5 (Fig. 1a and Fig. S1a). The intermolecular distance between Cy3 and Cy5 provided a reasonable approximation of the conformation (or compactness) of the TCR–pMHC bond. The conformation of a single TCR–pMHC bond on the cell surface was measured by Cy3/Cy5 FRET (FRET1) (Fig. 1a) in real time by total internal reflection fluorescence (TIRF) microscopy (Fig. S1b). The Cy3/Cy5 inter-dye distance of a TCR–pMHC bond is denoted as the TCR–pMHC bond distance to describe the TCR–pMHC bond conformation in the following paragraphs. […] The real-time intramolecular distances of the TCR–CD3ζ complexes were measured by GFP/Alexa Fluor 568 FRET (FRET2) (Fig. 1a) using epifluorescence time-lapse microscopy (Fig. S1b).
It is not clear what induces the dissociation of CD3ζ from the membrane to initiate T-cell intracellular signaling. […] We tracked and measured the FRET efficiencies of each individual microcluster in real time. […]

Another test has as its system 5C.C7 T cell. The experiment in a line: T-cell calcium signaling (fluorescence imaging). The following applies: 10 μM PP2; X-Rhod-5F indicator, 37 °C. From the text:
To understand how the TCR–pMHC bond conformation triggers T-cell signaling, we devised a fluorescence micropipette assay to measure real-time T-cell calcium signaling at the single-cell level. Fast single T-cell calcium flux was observed upon T cell/APC contact (bond formation). Consistently, the calcium signaling amplitude and speed were dependent on the peptide potency (Fig. 5e, f, Fig. S15, and Movie S7). To link the TCR conformational change to TCR signaling, we simultaneously plotted the association of the TCR–CD3ζ conformational change with the Ca^2+ signal against the stimulation time. […] Ca^2+ release in turn drives the dissociation of positively charged CD3ζ from the negatively charged phospholipids in the plasma membrane[32] to expose the CD3ζ ITAM domains for phosphorylation via a Ca^2+ signaling feedback loop (Fig. 5h).
(§1) To measure the TCR–pMHC bond distance by smFRET in the absence of CD4 binding, T cells were incubated with 10 μg/mL anti-CD4 antibody (GK 1.5, Biolegend) and 0.027 µg/µL of Cy5-J1 scFV for 30 min at 4 °C. After three washes, the cells were added to a lipid bilayer containing Cy3-pMHCs, and smFRET assays were performed in the continuous presence of 10 μg/mL anti-CD4 antibody at 37 °C using TIRF microscopy. […]

For test [2], the system named is TCR microclusters of 5C.C7 T cells. The experiment in a line: TCR microcluster formation at the T-cell synapse. The conditions noted are these: 10 μM PP2.
Source text: TCRs form microclusters upon antigen stimulation (Movie S4). To measure the conformational dynamics of single TCR–pMHC bonds without possible interference from TCR microclusters, we used latrunculin A (LA) to prevent the formation of TCR microclusters during smFRET measurements. […] We then performed smFRET in the absence of TCR microclusters.
To test whether TCR–CD3ζ conformational changes were dependent on TCR signaling, we used an Src kinase inhibitor PP2[27] to block TCR signaling. Consistent with the results of a previous study,[21] […] To reveal the role of TCR signaling in TCR–CD3ζ conformational changes, we plotted the time trajectories of the normalized intramolecular TCR–CD3ζ distances against the stimulation time in the absence and presence of PP2 (Fig. 4d). In the absence of PP2, the intracellular CD3ζ chain quickly separated from the TCR extracellular domain upon TCR engagement with the K5 pMHC and then reached a stable, fully extended TCR–CD3ζ conformation.
as §1

Consider `CC(C)(C)n1nc(-c2ccc(Cl)cc2)c2c(N)ncnc21` [PP2], for which, in test [1] (K5 pMHC, 37 °C), the “effect of PP2 on TCR–CD3ζ conformational change” value is “completely abolished the TCR-CD3 conformational change”. For the same molecule, the “effect of PP2 on TCR–CD3ζ conformational change (MCC and 102S)” value in test [1] (MCC and 102S pMHCs, Fig. S11) is “this effect of TCR signaling was also found”. Also, the “effect of PP2 on T-cell calcium signaling” value in the test with 5C.C7 T cell is “completely abrogated T-cell calcium signaling”. Moreover, the “effect of PP2 on TCR microcluster formation” value in test [2] is reported as “TCRs could still form microclusters”.
